Assay results published in US6737383B1, “Herbicidal oxadiazolidines” (priority 1999, dated 2004).

How the values were obtained:
[1] = test system: bedstraw; test: Test B pre/postemergence bedstraw; assay type: in vivo, Galium aparine; details: Postemergence, Rate 250 g/ha; scale of 0 to 10, 0 is no effect, 10 is complete control
Outline: (§1)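 Herbicidal effect was estimated by eye on a ten-point control scale after plants spent twelve to sixteen days in a greenhouse following soil or foliar treatment. Foliar sprays targeted plants at one to four leaves; all doses were formulated in a non-phytotoxic solvent with surfactant.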

[2] = test system: blackgrass; test: Test B pre/postemergence blackgrass; assay type: in vivo, Alopecurus myosuroides
Outline: as §1

[3] = test system: surinam grass; test: Test B pre/postemergence surinam grass; assay type: in vivo, Brachiaria decumbens
Outline: as §1

[4] = test system: corn; test: Test B pre/postemergence corn; assay type: in vivo, Zea mays
Outline: as §1

[5] = test system: crabgrass; test: Test B pre/postemergence crabgrass; assay type: in vivo, Digitaria sanguinalis
Outline: as §1

[6] = test system: pigweed; test: Test B pre/postemergence pigweed; assay type: in vivo, Amaranthus retroflexus
Outline: as §1

[7] = test system: rape; test: Test B pre/postemergence rape; assay type: in vivo, Brassica napus
Outline: as §1

[8] = test system: soybean; test: Test B pre/postemergence soybean; assay type: in vivo, Glycine max
Outline: as §1

[9] = test system: sugar beet; test: Test B pre/postemergence sugar beet; assay type: in vivo, Beta vulgaris
Outline: as §1

[10] = test system: velvetleaf; test: Test B pre/postemergence velvetleaf; assay type: in vivo, Abutilon theophrasti
Outline: as §1

[11] = test system: wheat; test: Test B pre/postemergence wheat; assay type: in vivo, Triticum aestivum
Outline: as §1

[12] = test system: wild oat; test: Test B pre/postemergence wild oat; assay type: in vivo, Avena fatua
Outline: as §1

[13] = test system: purple nutsedge; test: Test B pre/postemergence purple nutsedge; assay type: in vivo, Cyperus rotundus
Outline: as §1

[14] = test system: rice; test: Test B flood test rice; assay type: in vivo, Oryza sativa
Outline: (§2)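 Plants were grown to the 2-leaf stage before treatment with test chemical, then held in a greenhouse for twelve to sixteen days. Injury was visually rated against untreated controls on a 0–10 scale, where 0 is no effect and 10 is complete control.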

[15] = test system: smallflower flatsedge; test: Test B flood test smallflower flatsedge; assay type: in vivo, Cyperus difformis
Outline: as §2

[16] = test system: duck salad; test: Test B flood test duck salad; assay type: in vivo, Heteranthera limosa
Outline: as §2

[17] = Postemergence, Rate 62 g/ha, scale 0 to 10, 0 is no effect, 10 is complete control
[18] = Postemergence, Rate 125 g/ha, scale of 0 to 10 where 0 is no effect and 10 is complete control
[19] = Postemergence, Rate 250 g/ha, scale of 0 to 10, 0 is no effect, 10 is complete control
[20] = Preemergence, Rate 62 g/ha, scale of 0 to 10 where 0 is no effect and 10 is complete control
[21] = Preemergence, Rate 125 g/ha, scale of 0 to 10 where 0 is no effect and 10 is complete control
[22] = Preemergence, Rate 250 g/ha, scale 0 to 10 (0 no effect, 10 complete control)
[23] = Preemergence, Rate 500 g/ha, scale of 0 to 10 where 0 is no effect and 10 is complete control
[24] = Rate 500 g/ha, Postemergence, scale 0 to 10, 0 is no effect, 10 is complete control
[25] = Rate 62 g/ha, flood test species, Pre-emergence, visual evaluation after twelve to sixteen days
[26] = Rate 125 g/ha, under heading Pre-emergence, flood test species, visual evaluation after twelve to sixteen days
[27] = Rate 250 g/ha, Pre-emergence (flood test species), scale 0 to 10, 0 is no effect, 10 is complete control
[28] = Rate 500 g/ha, Pre-emergence section of Table B, 0 to 10 scale (0 no effect, 10 complete control)

CC[C@@H](C)n1c(=O)on(C(=O)N(c2ccc(Cl)cc2)C(C)C)c1=O [Compound 665]
Bedstraw plant response rating [1]: 0 | Plant response rating, Blackgrass [2, 17]: 3 | Blackgrass plant response rating [2, 18]: 7 | Blackgrass plant response rating [2, 19]: 8 | Blackgrass plant response rating [2, 20]: 5 | Blackgrass plant response rating [2, 21]: 7 | Plant response rating, Blackgrass [2, 22]: 8 | Plant response rating, Blackgrass [2, 23]: 9 | Blackgrass plant response rating [2, 24]: 8 | Plant response rating, B. signalgrass [3, 17]: 0 | Plant response rating, B. signalgrass [3, 18]: 0 | B. signalgrass plant response rating [3, 19]: 1 | B. signalgrass plant response rating [3, 20]: 1 | B. signalgrass plant response rating [3, 21]: 4 | Plant response rating, B. signalgrass [3, 22]: 8 | Plant response rating, B. signalgrass [3, 23]: 8 | B. signalgrass plant response rating [3, 24]: 5 | Plant response rating, Corn [4, 17]: 0 | Corn plant response rating [4, 18]: 0 | Corn plant response rating [4, 19]: 0 | Corn plant response rating [4, 20]: 0 | Corn plant response rating [4, 21]: 0 | Plant response rating, Corn [4, 22]: 0 | Plant response rating, Corn [4, 23]: 3 | Corn plant response rating [4, 24]: 3 | Plant response rating, Crabgrass [5, 17]: 1 | Crabgrass plant response rating [5, 18]: 7 | Crabgrass plant response rating [5, 19]: 9 | Crabgrass plant response rating [5, 20]: 6 | Crabgrass plant response rating [5, 21]: 8 | Plant response rating, Crabgrass [5, 22]: 9 | Plant response rating, Crabgrass [5, 23]: 10 | Crabgrass plant response rating [5, 24]: 9 | Plant response rating, Redroot pigweed [6, 17]: 3 | Redroot pigweed plant response rating [6, 18]: 3 | Redroot pigweed plant response rating [6, 20]: 7 | Redroot pigweed plant response rating [6, 21]: 8 | Plant response rating, Redroot pigweed [6, 22]: 9 | Plant response rating, Redroot pigweed [6, 23]: 10 | Redroot pigweed plant response rating [6, 24]: 7 | Plant response rating, Rape [7, 17]: 0 | Rape plant response rating [7, 18]: 0 | Rape plant response rating [7, 20]: 4 | Rape plant response rating [7, 21]: 6 | Plant response rating, Rape [7, 22]: 8 | Plant response rating, Rape [7, 23]: 9 | Rape plant response rating [7, 24]: 4 | Plant response rating, Soybean [8, 17]: 2 | Soybean plant response rating [8, 18]: 2 | Soybean plant response rating [8, 20]: 0 | Soybean plant response rating [8, 21]: 0 | Plant response rating, Soybean [8, 22]: 0 | Plant response rating, Soybean [8, 23]: 2 | Plant response rating, Sugarbeets [9, 17]: 0 | Sugarbeets plant response rating [9, 18]: 0 | Sugarbeets plant response rating [9, 20]: 0 | Sugarbeets plant response rating [9, 21]: 3 | Plant response rating, Sugarbeets [9, 22]: 6 | Plant response rating, Sugarbeets [9, 23]: 7 | Sugarbeets plant response rating [9, 24]: 4 | Plant response rating, Velvetleaf [10, 17]: 0 | Velvetleaf plant response rating [10, 18]: 2 | Velvetleaf plant response rating [10, 20]: 0 | Velvetleaf plant response rating [10, 21]: 0 | Plant response rating, Velvetleaf [10, 22]: 4 | Plant response rating, Velvetleaf [10, 23]: 7 | Velvetleaf plant response rating [10, 24]: 7 | Plant response rating, Wheat [11, 17]: 0 | Wheat plant response rating [11, 18]: 0 | Wheat plant response rating [11, 20]: 0 | Wheat plant response rating [11, 21]: 3 | Plant response rating, Wheat [11, 22]: 4 | Plant response rating, Wheat [11, 23]: 4 | Wheat plant response rating [11, 24]: 4 | Plant response rating, Wild oats [12, 17]: 0 | Wild oats plant response rating [12, 18]: 0 | Wild oats plant response rating [12, 20]: 3 | Wild oats plant response rating [12, 21]: 5 | Plant response rating, Wild oats [12, 22]: 7 | Plant response rating, Wild oats [12, 23]: 8 | Wild oats plant response rating [12, 24]: 5 | Nutsedge plant response rating [13, 18]: 0 | Nutsedge plant response rating [13, 20]: 0 | Nutsedge plant response rating [13, 21]: 0 | Plant response rating, Nutsedge [13, 22]: 0 | Nutsedge plant response rating [13, 24]: 0 | Plant response rating, Rice (0 to 10 scale, 0 is no effect, 10 is complete control) [14, 25]: 0 | Rice plant response rating (0 to 10 scale, 0 is no effect, 10 is complete control) [14, 26]: 0 | Rice plant response rating [14, 27]: 0 | Rice plant response rating [14, 28]: 0 | Plant response rating, S. Flatsedge (0 to 10 scale, 0 is no effect, 10 is complete control) [15, 25]: 0 | S. Flatsedge plant response rating (0 to 10 scale, 0 is no effect, 10 is complete control) [15, 26]: 0 | S. Flatsedge plant response rating [15, 27]: 0 | S. Flatsedge plant response rating [15, 28]: 0 | Plant response rating, Ducksalad (0 to 10 scale, 0 is no effect, 10 is complete control) [16, 25]: 0 | Ducksalad plant response rating (0 to 10 scale, 0 is no effect, 10 is complete control) [16, 26]: 0 | Ducksalad plant response rating [16, 27]: 0 | Ducksalad plant response rating [16, 28]: 0
